Compound: COc1cccc2cc(-c3nc([C@H]4CC[C@H](C(=O)O)CC4)n4ncnc(N)c34)[nH]c12 [OSI-027] + O=C(c1cc(Cc2n[nH]c(=O)c3ccccc23)ccc1F)N1CCN(C(=O)C2CC2)CC1 [Olaparib] (partner 8 µM)
Assay: relative viability (nuclei count vs DMSO), 5 days (fraction); higher = more cells survive
Conditions: first compound 0.01 µM
How it was run: (§1)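 Relative viability was taken as the ratio of nuclei in treated wells to nuclei in vehicle wells. Lung cancer cell lines in 1536-well plates received compounds by pin tool one day after seeding, either one drug alone or a fixed anchor-drug dose plus five library-drug doses (not always all listed) in √10 steps. Nuclei were counted on 4× images after 5 days of treatment, and values are medians of duplicate plates.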

Cell Line | relative viability
NCI-H1915 | 0.284
NCI-H838 | 0.791
Calu-6 | 0.568
NCI-H522 | 0.544
CAL-12T | 0.751
EBC-1 | 0.662
NCI-H2228 | 0.952
A549 | 0.465
IA-LM | 0.898
SW 900 | 0.953

Same assay, conditions: first compound 0.03162 µM

Cell Line | relative viability
NCI-H2126 | 0.904
EPLC-272H | 0.495
NCI-H1755 | 0.849
NCI-H2023 | 0.446
NCI-H1650 | 0.825
NCI-H1793 | 0.791
NCI-H2342 | 0.385
H3255 | 0.555
NCI-H1975 | 0.609
PC-14 | 0.267
NCI-H1299 | 0.998
NCI-H1437 | 0.664
HOP-62 | 0.68
HCC-44 | 1.01
BEN | 1.19
LOU-NH91 | 0.907
NCI-H661 | 0.735
NCI-H1651 | 0.173
PC-3 [JPC-3] | 1.14

Cell Line | relative viability
SW 1573 | 0.513
LK-2 | 0.642
NCI-H2405 | 0.838
NCI-H1703 | 0.552
NCI-H1648 | 0.725
NCI-H1993 | 0.894
ChaGo-K-1 | 0.423
NCI-H1355 | 0.667
HCC-366 | 0.386
NCI-H1915 | 0.274
NCI-H838 | 0.856
Calu-6 | 0.621
NCI-H522 | 0.668
CAL-12T | 0.749
EBC-1 | 0.736
NCI-H2228 | 0.644
A549 | 0.258
IA-LM | 0.776
SW 900 | 0.819

Same assay, conditions: first compound 0.1 µM

Cell Line | relative viability
NCI-H2126 | 0.879
EPLC-272H | 0.661
NCI-H1755 | 0.883
NCI-H2023 | 0.455
NCI-H1650 | 0.873
NCI-H1793 | 0.729
NCI-H2342 | 0.439
H3255 | 0.588
NCI-H1975 | 0.755
PC-14 | 0.292
NCI-H1299 | 0.956
NCI-H1437 | 0.63
HOP-62 | 0.456
HCC-44 | 1
BEN | 0.769
LOU-NH91 | 0.844
NCI-H661 | 0.748
NCI-H1651 | 0.178
PC-3 [JPC-3] | 1.23

Cell Line | relative viability
SW 1573 | 0.398
LK-2 | 0.654
NCI-H2405 | 0.823
NCI-H1703 | 0.316
NCI-H1993 | 0.902
ChaGo-K-1 | 0.451
NCI-H1355 | 0.663
HCC-366 | 0.417
NCI-H1915 | 0.259
NCI-H838 | 0.705
Calu-6 | 0.637
NCI-H522 | 0.524
CAL-12T | 0.777
EBC-1 | 0.67
NCI-H2228 | 0.562
A549 | 0.305
IA-LM | 0.733
SW 900 | 0.931

Same assay, conditions: first compound 0.3162 µM

Cell Line | relative viability
NCI-H2126 | 0.835
EPLC-272H | 0.386
NCI-H1755 | 0.761
NCI-H2023 | 0.303
NCI-H1650 | 0.807
NCI-H1793 | 0.363
NCI-H2342 | 0.338
H3255 | 0.569
NCI-H1975 | 0.76
PC-14 | 0.306
NCI-H1299 | 1.04
NCI-H1437 | 0.644
HOP-62 | 0.594
HCC-44 | 1
BEN | 0.554
LOU-NH91 | 0.843
NCI-H661 | 0.712
NCI-H1651 | 0.189
PC-3 [JPC-3] | 1.08

Cell Line | relative viability
SW 1573 | 0.444
LK-2 | 0.476
NCI-H2405 | 0.694
NCI-H1703 | 0.304
NCI-H1648 | 0.639
NCI-H1993 | 0.653
ChaGo-K-1 | 0.415
NCI-H1355 | 0.521
HCC-366 | 0.386
NCI-H1915 | 0.298
NCI-H838 | 0.492
Calu-6 | 0.64
NCI-H522 | 0.679
CAL-12T | 0.53
EBC-1 | 0.579
NCI-H2228 | 0.474
A549 | 0.282
IA-LM | 0.485
SW 900 | 0.823

Same assay, conditions: first compound 1 µM

Cell Line | relative viability
NCI-H2126 | 0.578
EPLC-272H | 0.298
NCI-H1755 | 0.486
NCI-H2023 | 0.253
NCI-H1650 | 0.722
NCI-H1793 | 0.233
NCI-H2342 | 0.314
H3255 | 0.409
NCI-H1975 | 0.478
PC-14 | 0.23
NCI-H1299 | 0.796
NCI-H1437 | 0.53
HOP-62 | 0.167
HCC-44 | 0.716
BEN | 0.527
LOU-NH91 | 0.638
NCI-H661 | 0.423
NCI-H1651 | 0.186
PC-3 [JPC-3] | 0.628

Cell Line | relative viability
SW 1573 | 0.293
LK-2 | 0.173
NCI-H2405 | 0.456
NCI-H1703 | 0.19
NCI-H1648 | 0.397
NCI-H1993 | 0.522
ChaGo-K-1 | 0.317
NCI-H1355 | 0.342
HCC-366 | 0.219
NCI-H1915 | 0.237
NCI-H838 | 0.437
Calu-6 | 0.577
NCI-H522 | 0.449
CAL-12T | 0.335
EBC-1 | 0.331
NCI-H2228 | 0.226
A549 | 0.0927
IA-LM | 0.212
SW 900 | 0.519

Compound: Cc1nc(NC(=O)N2CCC[C@H]2C(N)=O)sc1-c1ccnc(C(C)(C)C(F)(F)F)c1 [Alpelisib] + Nc1ncn([C@H]2C[C@H](O)[C@@H](CO)O2)c(=O)n1 [Decitabine] (partner 2 µM)
Assay: as above
Conditions: first compound 0.04 µM
How it was run: as §1

Cell Line | relative viability
NCI-H2126 | 0.586
EPLC-272H | 0.337
NCI-H1755 | 0.661
NCI-H2023 | 0.205
NCI-H1650 | 0.346
NCI-H1793 | 0.539
NCI-H2342 | 0.697
H3255 | 0.632
NCI-H1975 | 0.39
PC-14 | 0.244
NCI-H1437 | 0.562
HOP-62 | 0.259
HCC-44 | 0.891
BEN | 0.776
LOU-NH91 | 0.823
NCI-H661 | 0.56

Cell Line | relative viability
NCI-H1651 | 0.625
PC-3 [JPC-3] | 0.798
SW 1573 | 0.489
LK-2 | 0.289
NCI-H2405 | 0.756
NCI-H1648 | 0.477
NCI-H1993 | 0.547
ChaGo-K-1 | 0.52
NCI-H1355 | 0.41
HCC-366 | 0.322
NCI-H1915 | 0.267
NCI-H838 | 0.405
NCI-H522 | 0.707
A549 | 0.197
SW 900 | 0.425

Same assay, conditions: first compound 0.1265 µM

Cell Line | relative viability
NCI-H2126 | 0.576
EPLC-272H | 0.374
NCI-H1755 | 0.69
NCI-H2023 | 0.188
NCI-H1650 | 0.365
NCI-H1793 | 0.466
NCI-H2342 | 0.666
H3255 | 0.603
NCI-H1975 | 0.357
PC-14 | 0.243
NCI-H1437 | 0.579
HOP-62 | 0.22
HCC-44 | 0.97
BEN | 0.679
LOU-NH91 | 0.781
NCI-H661 | 0.586
NCI-H1651 | 0.557
PC-3 [JPC-3] | 0.757
SW 1573 | 0.453
LK-2 | 0.256
NCI-H2405 | 0.731
NCI-H1648 | 0.508
NCI-H1993 | 0.561
ChaGo-K-1 | 0.529
NCI-H1355 | 0.386
HCC-366 | 0.318
NCI-H1915 | 0.285
NCI-H838 | 0.422
NCI-H522 | 0.741
A549 | 0.294

Same assay, conditions: first compound 0.4 µM

Cell Line | relative viability
NCI-H2126 | 0.607
EPLC-272H | 0.388
NCI-H1755 | 0.778
NCI-H2023 | 0.234
NCI-H1650 | 0.389
NCI-H1793 | 0.449
NCI-H2342 | 0.701
H3255 | 0.65
NCI-H1975 | 0.387
PC-14 | 0.248
NCI-H1437 | 0.609
HOP-62 | 0.216
HCC-44 | 1.02
BEN | 0.837
LOU-NH91 | 0.79
NCI-H661 | 0.576

Cell Line | relative viability
NCI-H1651 | 0.703
PC-3 [JPC-3] | 0.887
SW 1573 | 0.626
LK-2 | 0.254
NCI-H2405 | 0.699
NCI-H1648 | 0.353
NCI-H1993 | 0.592
ChaGo-K-1 | 0.526
NCI-H1355 | 0.328
HCC-366 | 0.327
NCI-H1915 | 0.255
NCI-H838 | 0.508
NCI-H522 | 0.681
A549 | 0.322
SW 900 | 0.411

Same assay, conditions: first compound 1.265 µM

Cell Line | relative viability
NCI-H2126 | 0.454
EPLC-272H | 0.297
NCI-H1755 | 0.678
NCI-H2023 | 0.245
NCI-H1650 | 0.345
NCI-H1793 | 0.388
NCI-H2342 | 0.711
H3255 | 0.448
NCI-H1975 | 0.366
PC-14 | 0.196
NCI-H1437 | 0.527
HOP-62 | 0.234
HCC-44 | 0.921
BEN | 0.693
LOU-NH91 | 0.679
NCI-H661 | 0.474

Cell Line | relative viability
NCI-H1651 | 0.598
PC-3 [JPC-3] | 0.813
SW 1573 | 0.365
LK-2 | 0.198
NCI-H2405 | 0.517
NCI-H1648 | 0.372
NCI-H1993 | 0.494
ChaGo-K-1 | 0.475
NCI-H1355 | 0.328
HCC-366 | 0.231
NCI-H1915 | 0.265
NCI-H838 | 0.438
NCI-H522 | 0.591
A549 | 0.25
SW 900 | 0.505

Same assay, conditions: first compound 4 µM

Cell Line | relative viability
NCI-H2126 | 0.428
EPLC-272H | 0.284
NCI-H1755 | 0.575
NCI-H2023 | 0.183
NCI-H1650 | 0.362
NCI-H1793 | 0.275
NCI-H2342 | 0.503
H3255 | 0.467
NCI-H1975 | 0.268
PC-14 | 0.221
NCI-H1437 | 0.527
HOP-62 | 0.283
HCC-44 | 0.889
BEN | 0.749
LOU-NH91 | 0.648
NCI-H661 | 0.495

Cell Line | relative viability
NCI-H1651 | 0.439
PC-3 [JPC-3] | 0.79
SW 1573 | 0.359
LK-2 | 0.185
NCI-H2405 | 0.58
NCI-H1648 | 0.253
NCI-H1993 | 0.671
ChaGo-K-1 | 0.446
NCI-H1355 | 0.297
HCC-366 | 0.194
NCI-H1915 | 0.251
NCI-H838 | 0.359
NCI-H522 | 0.61
A549 | 0.229
SW 900 | 0.379

Source: the supplement of paper PMC10307832
